Here are results for nine compounds from patent publication US6022880A, “Substituted pyridylamino indoles” (Hoechst Marion Roussel, Inc., priority 1997, dated 2000).

The structures appear in SMILES notation. Counter-ions that a name gives are not always drawn. Like-named read-outs stand apart in the source and are kept apart here.

Assay [1] has as its system serotonin uptake, rat whole brain synaptosomes. Put plainly: Inhibition of [3H]-Serotonin Uptake in Rat Whole Brain Synaptosomes. Particulars: [3H]-5HT 50 nM, read-out: C: Inhibition of serotonin uptake, IC50. The class given is biochemical, rat (male Wistar). On the procedure: (C) Inhibition of [^3 H]-Serotonin Uptake in Rat Whole Brain Synaptosomes
(§1) A. Animals: Male CR Wistar Rats (100-125 g).
The final desired concentration of ^3 H-5HT in the assay is 50 nM. The dilution factor is 0.8.
5. For most assays, a 1 mM solution of the test compound is made up in suitable solvent and serially diluted such that the final concentration in the assay ranges from 2×10^-8 to 2×10^-5 M. Seven concentrations are used for each assay.
Male Wistar rats are decapitated and the brain rapidly removed. Whole brain minus cerebella is weighed and homogenized in 9 volumes of ice-cold 0.32 M sucrose using a Potter-Elvejhem homogenizer. Homogenization should be done with 4-5 up and down strokes at medium speeds to minimize synaptosome lysis. The homogenate is centrifuged at 1000 g for 10 min. at 0-4° C. The supernatant (S1) is decanted and is used for uptake experiments.
(§2) Tubes are incubated at 37° C. under a 95% O2 /5% CO2 atmosphere for 5 minutes. For each assay, 3 tubes are incubated with 20 μl of vehicle at 0° C. in an ice bath. After incubation all tubes are immediately centrifuged at 4000 g for 10 minutes. The supernatant fluid is aspirated and the pellets dissolved by adding 1 ml of solubilizer (Tritor. X-100+50% EtOH, 1:4 v/v). The tubes are vigorously vortexed, decanted into scintillation vials, and counted in 10 ml of Liquiscint scintillation counting cocktail. Active uptake is the difference between cpm at 37° C. and 0° C. The percent inhibition at each drug concentration is the mean of three determinations. IC50 values are derived from log-probit analysis.

The subject of assay [2] is dopamine uptake, rat striatal synaptosomes. Put plainly: Inhibition of 3H-Dopamine Uptake in Rat Striatal Synaptosomes. The class given is biochemical, rat (male Wistar). The settings on record: 3H-DA 50 nM, read-out: D: Inhibition of dopamine uptake, IC50. On the procedure: (D) Inhibition of ^3 H-Dopamine Uptake in Rat Striatal Synaptosomes
This assay is used to show differential drug effects on dopamine uptake versus norepinephrine uptake and to identify therapeutic agents for diseases where the potentiation of dopaminergic activity may be helpful (e.g. Parkinson's Disease).
as §1
The final desired concentration of ^3 H-DA in the assay is 50 nM. The dilution factor is 0.9. Therefore, the KHBB is made up to contain 55.5 nM [^3 H]-5DA.
5. For most assays, a 1 mM stock solution of the test compound is made up in a suitable solvent and serially diluted such that the final concentration in the assay ranges from 2×10^-8 to 2×10^-5 M. Seven concentrations are used for each assay. Higher or lower concentrations may be used depending on the potency of the compound.
Male Wistar rats are decapitated and the brain rapidly removed. Corpora striata are rapidly removed, weighed and homogenized in 9 volumes of ice-cold 0.32 M sucrose using a Potter-Elvejhem homogenizer. Homogenization should be done with 4-5 up and down strokes at medium speeds to minimize synaptosome lysis. The homogenate is centrifuged at 1000 g for 10 min. at 0-4° C. The supernatant (S1) is decanted and is used for uptake experiments.
as §2, with “(Triton” for “(Tritor.”

Assay [3] concerns norepinephrine uptake, rat whole brain or hypothalamic synaptosomes. Nature of the assay: Inhibition of [3H]-Norepinephrine Uptake in Rat Whole Brain or Hypothalamic Synaptosomes. The format is biochemical, rat (male Wistar). Particulars: [3H]-NE 50 nM, read-out: E: Inhibition of norepinephrine uptake, IC50. On the procedure:
(E) Inhibition of [^3 H]-Norepinephrine Uptake in Rat Whole Brain or Hypothalamic Synaptosomes
This assay is used as a biochemical screen for potential antidepressants which block norepinephrine uptake.
A. Animals: Male CR Wistar rats (100-125 g).
The final desired concentration of [^3 H]-NE in the assay is 50 nM. The dilution factor is 0.8.
5. For most assays, a 1 mM stock solution of the test compound is made up in a suitable solvent and serially diluted such that the final concentration in the assay ranges from 2×10^-8 to 2×10^-5 M. Seven concentrations are used for each assay.
Male Wistar rats are decapitated and the brain rapidly removed. Either whole brain minus cerebella or hypothalamus is weighed and homogenized in 9 volumes of ice-cold 0.32 M sucrose using a Potter-Elvejhem homogenizer. Homogenization should be done with 4-5 up and down strokes at medium speeds to minimize synaptosome lysis. The homogenate is centrifuged at 1000 g for 10 min. at 0-4° C. The supernatant (S1) is decanted and is used for uptake experiments.
as §2, with “(Triton” for “(Tritor.”

Assay [4] addresses T1, 5HT1A receptor (Rattus norvegicus, UniProt P19327).
T1 construct: Hippocampi are removed, weighed and homogenized in 20 volumes of 0.05 M Tris buffer; from tissue; host or cells: rat hippocampus membranes (male Wistar)
T1 sequence (P19327 1-422): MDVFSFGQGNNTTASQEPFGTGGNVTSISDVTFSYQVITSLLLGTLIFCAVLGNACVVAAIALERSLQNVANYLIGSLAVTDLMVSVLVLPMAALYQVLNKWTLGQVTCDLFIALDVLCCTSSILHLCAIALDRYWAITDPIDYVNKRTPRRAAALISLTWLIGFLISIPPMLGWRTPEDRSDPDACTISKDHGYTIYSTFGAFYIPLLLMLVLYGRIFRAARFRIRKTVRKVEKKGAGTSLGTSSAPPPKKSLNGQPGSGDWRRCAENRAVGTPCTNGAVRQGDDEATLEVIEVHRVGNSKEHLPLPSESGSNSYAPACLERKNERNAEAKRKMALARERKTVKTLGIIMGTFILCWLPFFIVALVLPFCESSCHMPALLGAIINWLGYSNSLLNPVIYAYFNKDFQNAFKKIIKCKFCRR
Put plainly: [3H]DPAT Binding to Serotonin Receptors of 5HT1A Type. The arrangement: species or system rat (male Wistar, hippocampus). Particulars: [3H]DPAT 0.5 nM, rat hippocampal membranes.
Method: The purpose of this assay is to determine the affinity of test compounds for the 5HT1A receptor in the brain.
Serotonin creatinine sulfate. 0.5 mM stock solution is made up in 0.01 N HCl and 20 μl added to 3 tubes for determination of nonspecific binding (final concentration=10 μM).
Test Compounds. For most assays, a 1 mM stock solution is made up in a suitable solvent and serially diluted, such that the final concentration in the assay ranges from 2×10^-5 to 2×10^-8 M. Seven concentrations are used for each assay.
Male Wistar rats are sacrificed by decapitation. Hippocampi are removed, weighed and homogenized in 20 volumes of 0.05 M Tris buffer, pH 7.7. The homogenate is centrifuged at 48,000 g for 10 minutes and the supernatant is discarded. […]
Tubes are incubated for 15 minutes at 25° C. […] The filters are then placed into scintillation vials with 10 ml of Liquiscint scintillation cocktail and counted.
Specific binding is defined as the difference between total binding and binding in the presence of 10 μM 5HT. IC50 values are calculated from the percent specific binding at each drug concentration. […]
Tubes are incubated for 15 minutes at 25° C. […] The filters are then placed into scintilltion vials with 10 ml of Liquiscint scintillation cocktail and counted. […] IC50 values are calculated from the percent specific binding at each drug concentration.

In assay [5] the target is T2, 5HT3 receptor (Rattus norvegicus, UniProt P35563).
T2 sequence (P35563 24-483): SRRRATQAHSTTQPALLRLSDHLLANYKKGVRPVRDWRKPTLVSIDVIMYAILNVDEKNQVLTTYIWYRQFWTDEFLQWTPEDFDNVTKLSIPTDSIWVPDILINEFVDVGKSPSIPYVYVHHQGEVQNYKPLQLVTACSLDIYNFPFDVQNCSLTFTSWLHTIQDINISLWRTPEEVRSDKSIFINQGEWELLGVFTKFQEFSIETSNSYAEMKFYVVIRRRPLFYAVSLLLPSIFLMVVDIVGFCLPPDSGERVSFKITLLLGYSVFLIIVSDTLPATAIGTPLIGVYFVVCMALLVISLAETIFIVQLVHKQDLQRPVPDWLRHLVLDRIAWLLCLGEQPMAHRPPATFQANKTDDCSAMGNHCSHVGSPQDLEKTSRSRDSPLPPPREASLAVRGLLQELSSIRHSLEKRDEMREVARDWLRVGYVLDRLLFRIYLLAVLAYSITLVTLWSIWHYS
Nature of the assay: biochemical. The class given is binding, rat (male Wistar, entorhinal cortex). On the procedure: The homogenate is centrifuged at 48,000 g for 15 minutes at 4° C.
The filters are dried and counted in 10 ml of liquid scintillation cocktail.

Assay [6] relates to rats (schedule-induced polydipsia). Put plainly: Schedule-Induced Polydipsia in Rats. The settings on record: i.p., daily; rats tested once a week. The format is in vivo, rat (male Wistar). From the text: Schedule-Induced Polydipsia in Rats
Food deprived rates exposed to a fixed-interval feeding schedule and allowed free access to water develop an excessive drinking behavior known as polydipsia. This schedule-induced polydipsia (SIP) cannot be explained in terms of a physiological deficit due to water deprivation. Furthermore,it offers no benefit or reward to the rat (1). Just as SIP involves the exaggeration of the normal drinking behavior, the compulsive symptoms of obsessive-compulsive disorder (OCD) can be considered an exaggeration of normal human behaviors.
Male Wistar rats (Charles River) weighing 180-220 grams were individually housed and maintained in accordance with the "NIH Guide to Care and Use of Laboratory Animals" (National Institute of Health Care Publications, No. 85-23, revised 1985) with a 12 hour light; 12 hour dark cycle and allowed free access to water. The rats were placed on a restricted diet which maintained 80% of their free feeding body weight. To induce polydipsia, rats were placed in operant chambers housed in sound attenuated boxes where a pellet dispenser automatically dispensed two 45 mg (Noyes) pellets on a fixed-interval 60 second (FI-60 sec.) schedule over a 150 minute test session. Water was available at all times in the operant chambers. After four weeks (Monday through Friday) of exposure to the FI-60 sec. feeding schedule, approximately 80% of the rats met a pre-determined criterion for water consumption (greater than 60 mls of water per session) and were considered polydipsic. Rats (N=8) were administered, intraperitoneally (IP), vehicle or the appropriate compound daily. Once dosing commenced, the rats were tested in the operant chambers once a week to assess SIP.
Compounds were either dissolved or suspended in distilled water plus a drop of Tween 80 and injected IP in a dosage volume of 1 ml/kg. The final volume was prepared to account for salt content and the dosage was expressed as 100% base.

Assay [7] relates to norepinephrine uptake (active transport system). Particulars: high-affinity, sodium dependent active transport system; literature; read-out: Km (NE uptake); cited from earlier work.
The mark [8] stands for this setting: [3H]-GR65630 0.4 nM, rat entorhinal cortex, read-out: B: 5HT3 receptor binding, IC50.

For `CCCN(c1ccncc1)c1cc2ccccc2s1` [2-(Propyl-4-pyridinylamino)benzo[b]thiophene hydrochloride], the IC50 turned out to be 240 nM in assay [1], 91 nM in assay [2] and 55 nM in assay [3].

In the case of `c1ccc2c(Nc3ccncc3)c[nH]c2c1` [3-(4-pyridinylamino)-1H-indole], the IC50 came out at 6400 nM in assay [4], 5500 nM in assay [5] (setting [8]), 14500 nM in assay [1] and 1000 nM in assay [3].

As for `CC(C)CN(c1ccncc1)c1csc2cc(C(F)(F)F)ccc12.Cl` [3-[(2-Methylpropyl)(4-pyridinylamino)]-6-trifluoromethylbenzo[b]thiophene hydrochloride], the “inhibition of SIP (schedule-induced polydipsia), active dose” value (“inhibition of SIP” for short) in assay [6] is “Active at 15”.

`CC(C)CN(c1ccncc1)c1csc2cc(Cl)ccc12.Cl` [6-Chloro3-[(2-methylpropyl)(4-pyridinyl)amino]benzo[b]thiophen hydrochloride]: the “inhibition of SIP” value in assay [6] is on record as “Active at 15”.

For the compound `CCCN(c1ccncc1)c1csc2cc(Cl)ccc12.Cl` [6-Chloro-3-(propyl-4-pyridinylamino)benzo[b]thiophene hydrochloride], the half-maximal inhibitory concentration (IC50) amounted to 2600 nM in assay [5] (setting [8]), 60 nM in assay [1], 560 nM in assay [2] and 210 nM in assay [3]. In assay [6], the “inhibition of SIP” value was “Active at 30 and 15”.

With `CN(C)CCCN1c2ccccc2CCc2ccc(Cl)cc21` [Clomipramine, reference compound], the “inhibition of SIP” value in assay [6] was “Active at 5”.

As to `CNCCC(Oc1ccc(C(F)(F)F)cc1)c1ccccc1` (stereo not drawn) [Fluoxetine, reference compound], the “inhibition of SIP” value in assay [6] was “Active at 5”.

In assay [5], `CN1[C@@H]2CC[C@H]1C[C@@H](OC(=O)c1cc(Cl)cc(Cl)c1)C2` [MDL 72222, reference compound] displayed a half-inhibitory concentration (IC50) of 530 nM.

In the case of `NC[C@H](O)c1ccc(O)c(O)c1` [norepinephrine], in assay [7], the Km was 0.1 to 1 µM.
